Where two headings read alike, the source gives them in different places.
Tests used:
[1] = pKa determination (pKa PRO Analyzer); format: physicochemical
Protocol: Sample Preparation: A stock solution of test compound in dimethyl sulfoxide (DMSO) having a final concentration of 10 mM was prepared and used in all experiments. The DMSO stocks were thawed, spun, and sonicated in a 40° C. water bath to facilitate dissolution.
The compounds were then transferred into 24 consecutive wells of a 96 well PCR plate for analysis with the aqueous method. […] The compounds were transferred into 24 consecutive wells of a 96 well plate for analysis using the co-solvent method.
Analysis: All data was obtained using a pKa PRO Analyzer (AATI, Ames, Iowa). For the aqueous method, an electrophoretic separation is performed in parallel across 24 different pH values, providing a direct measure of overall compound charge vs. pH. The compounds are detected by UV at 228 nm. The average pH spacing between buffer points is 0.4 pH units covering a typical pH range of 1.7-11.2.
The average pH spacing between buffer points is 0.4 pH units covering a pH range of 1.7-11.2. Four consecutive CE runs are performed for each compound starting with 60% co-solvent buffers and decreasing to 30% co-solvent buffers.
Norfloxacin is used as a daily performance-indicating standard.
Calculation of Results: The total number of pKa values is predicted by relating mobility and compound molecular weight using pKa Estimator® software (AATI, Ames, Iowa).

IRAK4 enzyme = IRAK4 enzyme (Homo sapiens (Human), UniProt Q9NWZ3); test: IRAK4 biochemical assay (HTRF/TR-FRET); conditions: 500 μM ATP
IRAK4 enzyme, sequence (Q9NWZ3 whole entry): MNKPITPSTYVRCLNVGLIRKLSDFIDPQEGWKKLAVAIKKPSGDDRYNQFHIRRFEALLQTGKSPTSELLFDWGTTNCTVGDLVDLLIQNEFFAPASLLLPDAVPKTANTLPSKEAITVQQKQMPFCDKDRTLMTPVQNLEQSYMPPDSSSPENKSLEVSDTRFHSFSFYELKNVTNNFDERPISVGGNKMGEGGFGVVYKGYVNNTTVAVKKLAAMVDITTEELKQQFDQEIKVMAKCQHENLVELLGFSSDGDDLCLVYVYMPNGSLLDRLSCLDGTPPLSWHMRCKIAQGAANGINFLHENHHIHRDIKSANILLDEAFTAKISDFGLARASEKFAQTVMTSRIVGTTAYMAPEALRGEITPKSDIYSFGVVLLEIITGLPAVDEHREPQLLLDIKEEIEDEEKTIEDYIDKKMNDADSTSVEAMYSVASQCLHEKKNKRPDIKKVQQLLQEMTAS
Protocol: IRAK4 enzyme (Carna Biosciences, Chuo-ku, Kobe, Japan) activity was measured by detecting phosphorylated peptide substrate formation using an antibody against the phosphorylated peptide substrate. This is a time-resolved fluorescence resonance energy transfer (TR-FRET) immunoassay, based on the STK1 KnEASE Assay (Cisbio, Bedford, Mass.). […] Compounds diluted in DMSO were spotted into 384 well plates using a Labcyte® Echo 550 Liquid Handling System prior to addition of IRAK4 enzyme and peptide substrate. Reaction solutions were delivered using a Multi-Flo (Bio-Tek Instruments). The enzyme and peptide solution was incubated with compound for 15 minutes at room temp before the reaction was initiated by the addition of ATP.

TNFα = test: IRAK4 monocyte TNFα cell based assay (LPS stimulated); parameters: species or system human
Protocol: IRAK4 Monocyte TNFα Cell Based Assay Procedure:
The cell suspension was then plated at a density of 5,000 cells/well onto black 384 well Greiner clear bottom plates. Plates were pre-spotted with test compounds and serially diluted in DMSO where 40 nL/well were delivered using the Echo 550 acoustic liquid dispenser (Labcyte®) for a final DMSO concentration of 0.1%. Plated cells were treated with compound for 1 hour at 37° C. Cells were then stimulated with 50 pg/ml of LPS (Sigma) excluding outside columns of plate used for unstimulated cell control wells. Cells were incubated for an additional 4 hours at 37° C. Cells were then spun out of the media and 5 μl of sample were taken and analyzed for total TNFα content using the TR-FRET Human TNFα detection system (CisBio). This system utilizes two labeled antibodies (cryptate and XL665) that bind to two different epitopes of the TNFα molecule and produce FRET signal proportional to the concentration of TNFα in the sample. Detection antibodies are mixed 50:50 and 5 μL were dispensed into each well. Plates were covered with clear seals and incubated at room temp overnight. […] Percent of control was calculated as follows: % Control=100×(RatioSample−Ratio0% stimulation)/(Ratio100% Stimulation−Ratio0% Stimulation) where unstimulated cells (0% stimulation) were the negative control and stimulated cells (100% stimulation) were used as the positive control.

[2] = tested on: human cryopreserved hepatocytes; test: Metabolic stability in cryopreserved hepatocytes; format: in vitro ADME; conditions: 1 μM test compound
Protocol: Metabolic Stability in Cryopreserved Hepatocytes: Complete HT medium was prepared by the addition of 1 mL Torpedo Antibiotic Mix to 45 mL of InVitroGRO™ HT medium. Supplemented KHB medium consisted of KrebsHenseleit buffer with amikacin (84 μg/mL), calcium chloride (1 mM), gentamicin (84 μg/mL), HEPES (20 mM), heptanoic acid (4.2 μM) and sodium bicarbonate (28.5 mM) and the pH was adjusted to 7.4 at 37° C. using 1 M NaOH or 1 M HCl. The human cryopreserved hepatocytes were pooled from ten adult donors (Celsis, Lot: HBZ).
Vials containing cryopreserved hepatocytes were removed from liquid nitrogen and immediately immersed in a 37° C. water bath. The vials were shaken gently until the contents had thawed and were then immediately emptied into 48 mL of pre warmed Complete HT Medium in a 50 mL conical tube. Cells remaining in the vial were resuspended with 1.0 mL of pre warmed Complete HT Medium and added to the conical tube. The tube was capped and then gently inverted several times to resuspend the hepatocytes. The cell suspension was centrifuged at 50×g at room temperature for 5 minutes and the supernatant discarded. The cell pellet was loosened by gently swirling the centrifuge tube and Supplemented KHB medium was added to obtain a target density of 2×10^6 cells/mL. The total cell count and the proportion of viable cells were determined by Trypan Blue dye exclusion using a hemocytometer.
For incubations, aliquots of hepatocyte suspension (250 μL containing 500,000 cells) were added to 250 μL of 2 μM test compound or metabolic stability controls in supplemented KHB in duplicate wells in a 24-well plate. Final concentration in the incubations were 1×10^6 cells/mL and 1 μM test compound. 7-Hydroxycoumarin and testosterone, compounds known to be efficiently metabolized by hepatocytes, were used as positive controls in parallel incubations ([…] final concentration of each compound). The incubation was carried out with gentle shaking at 37° C. under a humid atmosphere of 95% air/5% CO2 (v/v). Aliquots (50 μL) were removed after 0, 1, 3, and 6 hours and added to 100 μL IS/Q quenching solution. After termination, 150 μL of water was added, the plates were centrifuged at 3000×g for 10 min, and aliquots of the supernatant were analyzed on a Micromass Quattro Premier mass spectrometer coupled to an Agilent 1200 Series HPLC system with a Leap Technologies HTC PAL autosampler as described below.
Liquid Chromatography-Mass Spectrometry: Quantification of test compound and metabolic stability controls was performed by analyte/internal standard peak area ratios (PAR) measured on a Micromass Quattro Premier XL tandem triple quadrupole mass spectrometer coupled to an Agilent 1200 Series HPLC system with a Leap Technologies HTC PAL autosampler. The column used was a Phenomenex® MercuryMS™, Synergi Max-RP (100 Å pore size, 2.5 μm particle size, 20×2.0 mm). Mobile Phase A consisted of 0.2% (v/v) formic acid in 99% water/1% acetonitrile (v/v). Mobile Phase B consisted of 0.2% (v/v) formic acid in 5% water/95% acetonitrile (v/v). Elution was achieved by the following series of linear gradients: initial conditions of 0% B, holding for 30 s, then increasing to 100% B over 90 s, and then returning to the initial conditions over 1 s. The system was allowed to re-equilibrate for a minimum of 60 s between injections. The sample injection volume was 10 μL.

[3] = target: cloned hERG potassium channel encoded by the KCNH2 gene (Homo sapiens (Human), UniProt Q12809); test: Automated hERG assay (FASTPatch, QPatch); format: cell-based; conditions: HEK293T cells, patch clamp, 0.3-30 uM
cloned hERG potassium channel encoded by the KCNH2 gene, sequence (Q12809 whole entry): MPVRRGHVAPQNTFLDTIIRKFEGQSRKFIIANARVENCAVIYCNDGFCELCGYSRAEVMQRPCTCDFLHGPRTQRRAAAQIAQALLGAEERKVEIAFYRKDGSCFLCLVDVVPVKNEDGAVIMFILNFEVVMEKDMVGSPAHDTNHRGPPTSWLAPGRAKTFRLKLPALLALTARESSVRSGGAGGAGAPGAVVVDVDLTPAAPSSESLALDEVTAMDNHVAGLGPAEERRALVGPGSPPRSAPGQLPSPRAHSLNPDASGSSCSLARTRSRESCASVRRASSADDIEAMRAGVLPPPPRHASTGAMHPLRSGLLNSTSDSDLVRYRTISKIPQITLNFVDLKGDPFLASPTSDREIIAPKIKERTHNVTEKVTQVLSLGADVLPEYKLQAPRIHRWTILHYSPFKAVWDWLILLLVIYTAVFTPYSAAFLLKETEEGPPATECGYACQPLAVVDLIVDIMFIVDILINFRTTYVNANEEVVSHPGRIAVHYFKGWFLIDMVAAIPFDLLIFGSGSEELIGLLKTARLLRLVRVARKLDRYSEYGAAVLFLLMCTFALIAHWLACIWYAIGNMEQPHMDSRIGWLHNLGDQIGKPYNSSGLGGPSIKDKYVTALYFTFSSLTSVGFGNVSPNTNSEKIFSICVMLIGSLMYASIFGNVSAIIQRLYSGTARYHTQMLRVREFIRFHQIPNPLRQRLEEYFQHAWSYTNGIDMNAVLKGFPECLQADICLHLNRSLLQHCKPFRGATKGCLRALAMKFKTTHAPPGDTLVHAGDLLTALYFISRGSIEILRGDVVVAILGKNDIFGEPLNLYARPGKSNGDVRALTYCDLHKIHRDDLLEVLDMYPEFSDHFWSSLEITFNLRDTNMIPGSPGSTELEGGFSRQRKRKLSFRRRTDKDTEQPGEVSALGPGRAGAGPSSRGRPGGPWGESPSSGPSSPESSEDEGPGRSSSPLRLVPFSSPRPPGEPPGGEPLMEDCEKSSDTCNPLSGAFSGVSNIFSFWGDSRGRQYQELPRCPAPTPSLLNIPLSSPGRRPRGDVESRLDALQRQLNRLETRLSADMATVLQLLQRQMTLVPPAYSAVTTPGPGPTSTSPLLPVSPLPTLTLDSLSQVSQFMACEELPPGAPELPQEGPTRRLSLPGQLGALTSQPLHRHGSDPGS
Protocol: The FASTPatch® Assay (Charles River) was used to examine the in vitro effects of various compounds on the cloned hERG potassium channel encoded by the KCNH2 gene and stably expressed in HEK293T cells. Vehicle, test and control article formulations were prepared by diluting DMSO stock solutions in HB-PS (HEPES-buffered physiological saline solution), and were delivered to cells via the QPatch robot pipetting system to a final concentration of 0.3% DMSO. […] The positive control, 50 nM Cisparide, was applied in the same manner. Cell membrane currents were recorded at room temperature with up to 48 parallel patch clamp amplifiers in the QPatch HT® or QPatch HTX® system, and only cells with validated whole-cell recordings (seal resistance ≥200 MO and leak current ≤25% channel current) were used. Onset and block of hERG current was measured using a stimulus voltage pattern consisting of a 500 ms prepulse to −40 mV, a 2-second activating pulse to +40 mV, followed by a 2-second test pulse to −40 mV. The pulse pattern was repeated continuously at 10-second intervals from a holding potential of −80 mV. TurboSol analysis for test compound solubility was performed for each concentration tested using a Nephelostar reader measuring light scatter from a 635 nm laser source. […]

[4] = human monocytes, LPS 50 pg/ml, TNFα by TR-FRET, read-out: EC50 TNF

SMILES	pKa [1]	IC50 (IRAK4 enzyme) [nM]	EC50 (TNFα; [4]) [nM]	EC50 (TNFα; protein adjusted, competitive equilibrium dialysis, human plasma versus CCM with 10% FBS, read-out: Protein Adj. EC50 TNF) [nM]	Human Hep. Stability [2] [mL/min/kg]	IC50 [3] [nM]
CC(C)Nc1cc(-c2ccc3cc(C#N)cnn23)ncc1C(=O)NC[C@@H](F)C(C)(C)O [A, reference compound]	6.1	< 1	23	504	3.33	3900
CNc1cc(-c2ccc3cc(C#N)cnn23)ncc1C(=O)NC[C@@H](F)C(C)(C)O [Compound 1, (R)-6-(3-cyanopyrrolo[1,2-b]pyridazin-7-yl)-N-(2-fluoro-3-hydroxy-3-methylbutyl)-4-(methylamino)nicotinamide]	6.6	–	–	–	0.83	–
CC(C)(O)[C@H](F)CNC(=O)c1cnc(-c2ccc3cc(C#N)cnn23)cc1NCC#N [Compound 2, (R)-4-((cyanomethyl)amino)-6-(3-cyanopyrrolo[1,2-b]pyridazin-7-yl)-N-(2-fluoro-3-hydroxy-3-methylbutyl)nicotinamide]	5.1	–	–	–	2.17	–
C[C@H](C#N)Nc1cc(-c2ccc3cc(C#N)cnn23)ncc1C(=O)NC[C@@H](F)C(C)(C)O [Compound 3, 4-(((R)-1-cyanoethyl)amino)-6-(3-cyanopyrrolo[1,2-b]pyridazin-7-yl)-N-((R)-2-fluoro-3-hydroxy-3-methylbutyl)nicotinamide]	4.9	–	–	–	1.3	–
CC[C@H](C#N)Nc1cc(-c2ccc3cc(C#N)cnn23)ncc1C(=O)NC[C@@H](F)C(C)(C)O [Compound 5, 4-(((R)-1-cyanopropyl)amino)-6-(3-cyanopyrrolo[1,2-b]pyridazin-7-yl)-N-((R)-2-fluoro-3-hydroxy-3-methylbutyl)nicotinamide]	–	1	60	–	–	–
CC[C@@H](C#N)Nc1cc(-c2ccc3cc(C#N)cnn23)ncc1C(=O)NC[C@@H](F)C(C)(C)O [Compound 6, 4-(((S)-1-cyanopropyl)amino)-6-(3-cyanopyrrolo[1,2-b]pyridazin-7-yl)-N-((R)-2-fluoro-3-hydroxy-3-methylbutyl)nicotinamide]	–	5	267	–	–	–

Further lines, with some results ahead:

pKa [1]	IC50 (IRAK4 enzyme) [nM]	EC50 (TNFα; [4]) [nM]	EC50 (TNFα; protein adjusted, competitive equilibrium dialysis, human plasma versus CCM with 10% FBS, read-out: Protein Adj. EC50 TNF) [nM]	Human Hep. Stability [2] [mL/min/kg]	SMILES	IC50 [3] [nM]
–	–	164	–	–	CC(C)(O)[C@H](F)CNC(=O)c1cnc(-c2ccc3cc(C#N)cnn23)cc1NCCC#N [Compound 7, (R)-4-((2-cyanoethyl)amino)-6-(3-cyanopyrrolo[1,2-b]pyridazin-7-yl)-N-(2-fluoro-3-hydroxy-3-methylbutyl)nicotinamide]	–
5.9	< 1	33	–	2.33	CC(C)(O)[C@H](F)CNC(=O)c1cnc(-c2ccc3cc(C#N)cnn23)cc1NCCCC#N [Compound 8, (R)-4-((3-cyanopropyl)amino)-6-(3-cyanopyrrolo[1,2-b]pyridazin-7-yl)-N-(2-fluoro-3-hydroxy-3-methylbutyl)nicotinamide]	3500
4.8	< 1	49	–	4.33	CC(C)(C#N)Nc1cc(-c2ccc3cc(C#N)cnn23)ncc1C(=O)NC[C@@H](F)C(C)(C)O [Compound 9, (R)-4-((2-cyanopropan-2-yl)amino)-6-(3-cyanopyrrolo[1,2-b]pyridazin-7-yl)-N-(2-fluoro-3-hydroxy-3-methylbutyl)nicotinamide]	–
–	< 1	35	–	3.67	CC(C)(O)[C@H](F)CNC(=O)c1cnc(-c2ccc3cc(C#N)cnn23)cc1NC1(C#N)CC1 [Compound 10, (R)-4-((1-cyanocyclopropyl)amino)-6-(3-cyanopyrrolo[1,2-b]pyridazin-7-yl)-N-(2-fluoro-3-hydroxy-3-methylbutyl)nicotinamide]	–

— patent publication US11535622B2, “Pyrrolo[1,2-b] pyridazine derivatives” (Gilead Sciences, Inc., priority 2018, dated 2022)
